Reference: US20240269139A1, “COMPOUNDS FOR TARGETED PROTEIN DEGRADATION OF KINASES” (DANA-FARBER CANCER INSTITUTE, INC., priority 2020, published 2024)
“Also recorded” adds a separate entry of the source.

Target: protein kinases (human kinome)
Type: cell-based
Conditions: for Kinase hits: kinases significantly downregulated vs DMSO (fold change cutoff −1.25, P-value<0.01), ≤8 h, 0.1-5 μM degrader, 7 cell lines; for Total no. kinase hits: number of degraded kinases per library compound; for kinases the bifunctional compound degrades: as stated for the structure in the embodiments
Excerpt: Although development of targeted protein degraders requires a POI binder, among already-liganded proteins such as kinases, it was hypothesized that different targets would have a different propensity for current approaches to degrader-mediated destruction, which was termed ‘degradability’. […] It was rationalized that the probability of identifying the same kinase as a false positive in multiple treatments is low, therefore this analysis served to also assess the robustness of our data and subsequent interpretations. […] Overall, 62 protein kinases were degraded in more than 10 independent treatments, and remarkably, 9 of these (CDK4, AURKA, FER, WEE1, BLK. LIMK2, CDK6, GAK, LIMK1) were each degraded in at least 40 of the 154 independent treatments, emphasizing their predisposition to induced degradation (FIG. 1G; Appendix I).
Next, the frequency of degradation assessment was corrected for over-representation of molecules in the full dataset by omitting replicate profiling of compounds under different experimental conditions, to remove any bias. […] Unsurprisingly, the top degradable kinases mirror those from the previous analysis (CDK4, AURKA, FER, WEE1, BLK), confirming that in sufficiently large datasets, even with over-representation of certain molecules, frequency of degradation is a good measure of general tractability.

## C[C@@H]1C[C@@H](O)c2ncnc(N3CCN(C(=O)[C@H](CNCCCCCCCCCCc4cccc5c4C(=O)N(C4CCC(=O)NC4=O)C5=O)c4ccc(Cl)cc4)CC3)c21 (stereo partly shown) [INY-03-041-01]
  Kinase hits: AKT1, AKT2, AKT3, CDK4, MAPK6, STK17A
  Total no. kinase hits: 6

## Cc1ncsc1-c1ccc([C@H](C)NC(=O)[C@@H]2C[C@@H](O)CN2C(=O)[C@@H](NC(=O)CCCCOc2ccccc2-c2ccc3nc(-c4cccnc4N)n(-c4ccc(C5(N)CCC5)cc4)c3n2)C(C)(C)C)cc1 [INY-04-125-01]
  kinases the bifunctional compound degrades: LATS1 and STK17A
  Kinase hits: LATS1, STK17A
  Total no. kinase hits: 2

## Cc1cnc(Nc2ccc(N3CCN(CCOCCOCCNC(=O)COc4cccc5c4C(=O)N(C4CCC(=O)NC4=O)C5=O)CC3)cc2)nc1Nc1cccc(S(=O)(=O)NC(C)(C)C)c1 (stereo not shown) [JWG-118]
  kinases the bifunctional compound degrades: AAK1, AURKA, BMP2K, GAK, and WEE1
  Kinase hits: AAK1, AURKA, BMP2K, GAK, WEE1
  Total no. kinase hits: 5

## CS(=O)(=O)c1ccc(-c2cccn3nc(Nc4cccc(N5CCN(CCCCCCNC(=O)COc6cccc7c6C(=O)N(C6CCC(=O)NC6=O)C7=O)CC5)c4)nc23)cc1 (stereo not shown) [JWG-120]
  kinases the bifunctional compound degrades: AAK1 and AURKA
  Kinase hits: AAK1, AURKA
  Total no. kinase hits: 2

## Cc1cnc(Nc2ccc(N3CCN(CCOCCOCCC(=O)N[C@H](C(=O)N4C[C@H](O)C[C@H]4C(=O)N[C@@H](C)c4ccc(-c5scnc5C)cc4)C(C)(C)C)CC3)cc2)nc1Nc1cccc(S(=O)(=O)NC(C)(C)C)c1 [JWG-122]
  kinases the bifunctional compound degrades: AAK1 and GAK
  Kinase hits: AAK1, GAK
  Total no. kinase hits: 2

## Cc1cnc(Nc2ccc(N3CCN(CCCCCCC(=O)N[C@H](C(=O)N4C[C@H](O)C[C@H]4C(=O)N[C@@H](C)c4ccc(-c5scnc5C)cc4)C(C)(C)C)CC3)cc2)nc1Nc1cccc(S(=O)(=O)NC(C)(C)C)c1 [JWG-123]
  Kinase hits: AAK1, CDK16, WEE1, GAK, MARK4, NEK9, RPS6KB1, SIK2, SIK3, SNRK, STKI7A, STK17B
  Total no. kinase hits: 12

## Cc1ncsc1-c1ccc([C@H](C)NC(=O)[C@@H]2C[C@@H](O)CN2C(=O)[C@@H](NC(=O)CCCCCCc2ccc(Nc3ncc4c(n3)-c3ccccc3NC(=O)N4)cc2)C(C)(C)C)cc1 [JWG-148]
  kinases the bifunctional compound degrades: ABL2, EPHB2, SIK2, and TYK2
  Kinase hits: ABL2, EPHB2, SIK2, TYK2
  Total no. kinase hits: 4

## CC(C)S(=O)(=O)c1ccccc1Nc1nc(Nc2ccc(N3CCN(CCOCCOCCNC(=O)CNc4ccc5c(c4)C(=O)N(C4CCC(=O)NC4=O)C5=O)CC3)cc2)ncc1Cl (stereo not shown) [LT2-49, N-(2-(2-(2-(4-(4-((5-chloro-4-((2-(isopropylsulfonyl)phenyl)amino)pyrimidin-2-yl)amino)phenyl)piperazin-1-yl)ethoxy)ethoxy)ethyl)-2-((2-(2,6-dioxopiperidin-3-yl)-1,3-dioxoisoindolin-5-yl)amino)acetamide]
  kinases the bifunctional compound degrades: CDK4, AURKA, WEE1, BLK, FER, CDK6, LIMK2, AAK1, CDK5, CDK2, ITK, CDK17, LCK, PTK2B, CDK9, CDK7, CDK13, PRKAA1, CDK12, BMP2K, and STK10
  Kinase hits: CDK4, AURKA, WEE1, BLK, FER, CDK6, LIMK2, AAK1, CDK5, CDK2, ITK, CDK17, LCK, PTK2B, CDK9, CDK7, CDK13, PRKAA1, CDK12, BMP2K, STK10
  Total no. kinase hits: 21

## CNC(=O)c1ccccc1Nc1cc(Nc2ccc(N3CCN(CCOCCOCCNC(=O)CNc4cccc5c4C(=O)N(C4CCC(=O)NC4=O)C5=O)CC3)cc2OC)ncc1C(F)(F)F (stereo not shown) [MFH-5-103-1]
  kinases the bifunctional compound degrades: AURKA, CDK1O, CDK7, MAPK7, PTK2B, RPS6KA1, RPS6KA3, STK33, and WEE1
  Kinase hits: AURKA, CDK10, CDK7, MAPK7, PTK2B, RPS6KA1, RPS6KA3, STK33, WEE1
  Total no. kinase hits: 9

## CCc1cnn2c(N(Cc3ccc(N)nc3)C(=O)CCOCCOCCOCCNC(=O)CNc3cccc4c3C(=O)N(C3CCC(=O)NC3=O)C4=O)cc(N3CCCC[C@H]3CCO)nc12 (stereo partly shown) [MFH-5-115-2]
  kinases the bifunctional compound degrades: CDK4. AURK4. WEE1. STK17A, PLK1, BUB1, TTK, UHMK1, MAP3K1, BUB1B, RIOK2, NUAK1, PIM2, and CSNK1A1
  Kinase hits: CDK4, AURK4, WEE1, STK17A, PLK1, BUB1, TTK, UHMK1, MAP3K1, BUB1B, RIOK2, NUAK1, PIM2, CSNK1A1
  Total no. kinase hits: 14

## CNC(=O)c1ccccc1Nc1cc(Nc2ccc(N3CCN(CCCCCCCCNc4cccc5c4C(=O)N(C4CCC(=O)NC4=O)C5=O)CC3)cc2OC)ncc1C(F)(F)F (stereo not shown) [MFH-5-116-1]
  kinases the bifunctional compound degrades: AURKA, NUAK1, PTK2B, RPS6KA1, RPS6KA3, STK33, and WEE1
  Kinase hits: AURKA, NUAK1, PTK2B, KPS6KA1, RPS6KA3, STK33, WEE1
  Total no. kinase hits: 7

## O=C1CCC(N2C(=O)c3cccc(NCCCCCCCCN4CCC(NC(=O)c5[nH]ncc5NC(=O)c5c(Cl)cccc5Cl)CC4)c3C2=O)C(=O)N1 (stereo not shown) [MFH-5-126-1]
  kinases the bifunctional compound degrades: AURKA, BUB1, BUB1B, CDK13, CDK14, CDK17, CDK4, CDK9, CHEK1, CLK1, CSNK1A1, CSNK1D, DAPK1, ERN1, GSK3A, GSK3B, MAP3K1, NUAK1, PIK3CG, PIM2, PLK1, RIOK2, STK17A, STK7B, TTK, UHMK1, and WEE1
  Kinase hits: AURKA, BUB1, BUB1B, CDK13, CDK14, CDK17, CDK4, CDK9, CHEK1, CLK1, CSNK1A1, CSNK1D, DAPK1, ERN1, GSK3A, GSK3B, MAP3K1, NUAK1, PIK3CG, PIM2, PLK1, RIOK2, STK17A, STK17B, TTK, UHMK1, WEE1
  Total no. kinase hits: 27

## Nc1ncnc2c1c(-c1ccc(Oc3ccccc3)cc1)nn2[C@H]1CC[C@H](N2CCN(CCOCCNC(=O)CNc3cccc4c3C(=O)N(C3CCC(=O)NC3=O)C4=O)CC2)CC1 (stereo partly shown) [SB1-G-181]
  Kinase hits: ABL1, ABL2, AURKA, BLK, CSK, CSNK1E, FYN, LATS1, LCK, LIMK1, MAP2K5, SRC
  Total no. kinase hits: 12

## Cn1c(=O)c(-c2c(Cl)cccc2Cl)cc2cnc(Nc3ccc(OCCNC(=O)CCCCCCNC(=O)COc4cccc5c4C(=O)N(C4CCC(=O)NC4=O)C5=O)cc3)nc21 (stereo not shown) [SB1-G-192-1, N-(2-(4-((6-(2,6-dichlorophenyl)-8-methyl-7-oxo-7,8-dihydropyrido[2,3-d]pyrimidin-2-yl)amino)phenoxy)ethyl)-7-(2-((2-(2,6-dioxopiperidin-3-yl)-1,3-dioxoisoindolin-4-1413 yl)oxy)acetamido)heptanamide]
  kinases the bifunctional compound degrades: ABL1, ABL2, AURKA, BLK, CSK, EPHA3, EPHB6, FYN, GAK, LCK. LIMK2, MAPK14, NLK, PDK1, PKMYT1, SIK2, SRC, TNK2, WEE1, and YES1
  Kinase hits: ABL1, ABL2, AURKA, BLK, CSK, EPHA3, EPHB6, FYN, GAK, LCK, LIMK2, MAPK14, NLK, PDK1, PKMYT1, SIK2, SRC, TNK2, WEE1, YES1
  Total no. kinase hits: 20

## O=C(CCCCCCNC(=O)COc1cccc2c1C(=O)N(C1CCC(=O)NC1=O)C2=O)NCCOc1ccc(Nc2ncc3ccc(=O)n(C4CC5CCC4C5)c3n2)cc1 (stereo not shown) [SB1-G-194]
  kinases the bifunctional compound degrades: AAK1, AURKA, AURKB, CDK6, CDK9, FGR2, STK17A, and TTK
  Kinase hits: AAK1, AURKA, AURKB, CDK6, CDK9, FGR2, STK17A, TTK
  Total no. kinase hits: 8

## Nc1ncnc2c1c(-c1ccc(Oc3ccccc3)cc1)nn2[C@H]1CC[C@H](N2CCN(CCCCCCNC(=O)COc3cccc4c3C(=O)N(C3CCC(=O)NC3=O)C4=O)CC2)CC1 (stereo partly shown) [SB1-G-200]
  kinases the bifunctional compound degrades: ABL1, ABL2, BLK, CSNK1E. CSK, FYN, LATS1, LCK, LIMK1, MAP2K5, and SRC
  Kinase hits: ABL1, ABL2, BLK, CSNK1E, CSK, FYN, LATS1, LCK, LIMK1, MAP2K5, SRC
  Total no. kinase hits: 11

## CC(C)S(=O)(=O)c1ccccc1Nc1nc(Nc2ccc(N3CCN(CCOCCOCCOCCNC(=O)CNc4cccc5c4C(=O)N(C4CCC(=O)NC4=O)C5=O)CC3)cc2)ncc1Cl (stereo not shown) [SK-3-87, N-(2-(2-(2-(2-(4-(4-((5-chloro-4-((2-(isopropylsulfonyl)phenyl)amino)pyrimidin-2-yl)amino)phenyl)piperazin-1-yl)ethoxy)ethoxy)ethoxy)ethyl)-2-((2-(2,6-dioxopiperidin-3-yl)-1,3-dioxoisoindolin-4-yl)amino)acetamide]
  kinases the bifunctional compound degrades: AAK1, AURKA, BLK, CDK12, CDK17, CDK2, CDK5, CDK7, CDK9, FER, ITK, LCK, LIMK2, PTK2B, and WEE1
  Kinase hits: AAK1, AURKA, BLK, CDK12, CDK17, CDK2, CDK5, CDK7, CDK9, FER, ITK, LCK, LIMK2, PTK2B, WEE1
  Total no. kinase hits: 15

## CC(C)S(=O)(=O)c1ccccc1Nc1nc(Nc2ccc(N3CCN(CCOCCOCCOCCNC(=O)CNc4ccc5c(c4)C(=O)N(C4CCC(=O)NC4=O)C5=O)CC3)cc2)ncc1Cl (stereo not shown) [SK-3-89]
  kinases the bifunctional compound degrades: AAK1, AURKA, BLK, CDK12, CDK17, CDK2, CDK4, CDK5, CDK6, CDK7, CDK9, FER, ITK, LCK, LIMK2, PTK2B, STK10, and WEE1
  Kinase hits: AAK1, AURKA, BLK, CDK12, CDK17, CDK2, CDK4, CDK5, CDK6, CDK7, CDK9, FER, ITK, LCK, LIMK2, PTK2B, STK10, WEE1
  Total no. kinase hits: 18

## CC(C)S(=O)(=O)c1ccccc1Nc1nc(Nc2ccc(N3CCN(CCOCCNC(=O)CNc4ccc5c(c4)C(=O)N(C4CCC(=O)NC4=O)C5=O)CC3)cc2)ncc1Cl (stereo not shown) [SK-3-93]
  kinases the bifunctional compound degrades: AAK1, ABL2, AURKA, BLK, BMP2K, CDK12, CDK13, CDK17, CDK2, CDK4, CDK5, CDK6, CDK7, CDK9, FER, GAK, ITK. LCK, LIMK2. PRKAA1, PTK2B, RPS6KA1, SRC, and WEE1
  Kinase hits: AAK1, ABL2, AURKA, BLK, BMP2K, CDK12, CDK13, CDK17, CDK2, CDK4, CDK5, CDK6, CDK7, CDK9, FER, GAK, ITK, LCK, LIMK2, PRKAA1, PTK2B, RPS6KA1, SRC, WEE1,
  Total no. kinase hits: 24

## CC(C)S(=O)(=O)c1ccccc1Nc1nc(Nc2ccc(N3CCN(CCOCCOCCNC(=O)CNc4cccc5c4C(=O)N(C4CCC(=O)NC4=O)C5=O)CC3)cc2)ncc1Cl (stereo not shown) [TL12-186]
  Kinase hits: AAK1, ABL1, AURKA, AURKB, BLK, BMPR1A, BUB1, BUB1B, CDK10, CDK12, CDK13, CDK17, CDK2, CDK4, CDK5, CDK6, CDK7, CDK9, COQ8A, COQ8B, CSNK1D, CSNK1E,; also recorded: EEF2K, FER, FLT1, GAK, HASPIN, IRAK4, ITK, LCK, LIMK1, LIMK2, MAP3K11, MAP3K21, MAP4K1, MAP4K3, MAPK6, MAPK7, MARK2, MARK4, NEK2, NLK, PDK2, PLK4, PRAG1, PRKAA1, PTK2B, RIOK2, RPS6KA1, SIK2, SRC, STK10, STK17A, STK35, TEC, TNK2, ULK1, ULK3, WEE1, YES1
  Total no. kinase hits: 60

## COc1cc(N2CCN(CCOCCOCCNC(=O)CNc3cccc4c3C(=O)N(C3CCC(=O)NC3=O)C4=O)CC2)ccc1Nc1ncc(Cl)c(Nc2ccccc2S(=O)(=O)C(C)C)n1 (stereo not shown) [TL13-12]
  Kinase hits: AURKA, FER, PRK2
  Total no. kinase hits: 3
